The test system of one assay is HCV replicon genotype 1a. Nature of the assay: microbe, parasite or virus in culture. The class given is cell-based, hepatitis C virus (HCV). As to conditions: for IC50: Hepatitis C virus, 96 h, read-out: 1a IC50 (nM); for pIC50: read-out: 1a IC50.
The test system of the next assay is HCV replicon genotype 1b. Nature of the assay: microbe, parasite or virus in culture. As to conditions: for IC50: Hepatitis C virus, 96 h, read-out: 1b IC50 (nM); for pIC50: read-out: 1b IC50. It is filed as cell-based, hepatitis C virus (HCV).

pIC50: −log10 of the molar value. Read-outs that look alike come from different tables or passages of the source.

Consider `CNC(=O)c1c(-c2ccc(F)cc2)oc2cc(N(C)S(C)(=O)=O)c(-c3cc4c(=O)n(Cc5ccc(F)cc5)nnc4cc3Cl)cc12` [Compound 73, 5-[7-chloro-3-(4-fluorobenzyl)-4-oxo-3,4-dihydro-1,2,3-benzotriazin-6-yl]-2-(4-fluorophenyl)-N-methyl-6-[methyl(methylsulfonyl)amino]-1-benzofuran-3-carboxamide], for which the IC50 in the assay on HCV replicon genotype 1a is 11.6 nM; with HCV replicon genotype 1b it was 7.65 nM.
Taken in the same sequence, the figures for `CNC(=O)c1c(-c2ccc(F)cc2)oc2cc(N(C)S(C)(=O)=O)c(-c3ccc4c(n3)C(=O)N(Cc3ccc(C#N)cc3)CO4)cc12` [Compound 9] were 8.03 nM and 3.91 nM.
As to `CNC(=O)c1c(-c2ccc(F)cc2)oc2cc(N(C)S(C)(=O)=O)c(-c3ccc4c(n3)C(=O)N([C@H](C)c3ccc(F)cc3)CO4)cc12` [Compound 30, (R)-2-(4-fluorophenyl)-5-(3-(1-(4-fluorophenyl)ethyl)-4-oxo-3,4-dihydro-2H-pyrido[2,3-e][1,3]oxazin-6-yl)-N-methyl-6-(N-methylmethylsulfonamido)benzofuran-3-carboxamide], the values for the pIC50 in the assay on HCV replicon genotype 1a and with HCV replicon genotype 1b were 9.01 and 8.65, respectively.
The corresponding values for `CNC(=O)c1c(-c2ccc(F)cc2)oc2cc(N(C)S(C)(=O)=O)c(-c3ccc4c(n3)C(=O)N([C@@H](C)c3ccc(F)cc3)CO4)cc12` [Compound 31, (S)-2-(4-fluorophenyl)-5-(3-(1-(4-fluorophenyl)ethyl)-4-oxo-3,4-dihydro-2H-pyrido[2,3-e][1,3]oxazin-6-yl)-N-methyl-6-(N-methylmethylsulfonamido)benzofuran-3-carboxamide] are 7.38 and 7.90.
Take `CNC(=O)c1c(-c2ccc(F)cc2)oc2cc(N(C)S(C)(=O)=O)c(-c3ccc4nc(C)n(Cc5ccc(F)cc5)c(=O)c4n3)cc12` [Compound 68, 5-(3-(4-fluorobenzyl)-2-methyl-4-oxo-3,4-dihydropyrido[3,2-d]pyrimidin-6-yl)-2-(4-fluorophenyl)-N-methyl-6-(N-methylmethylsulfonamido)benzofuran-3-carboxamide]: the IC50 came to 2 nM in the assay with HCV replicon genotype 1a and 2.24 nM in the assay on HCV replicon genotype 1b.
As for `CNC(=O)c1c(-c2ccc(F)cc2)oc2cc(N(C)S(C)(=O)=O)c(-c3ccc4nc(CNC(C)=O)n(Cc5ccc(F)cc5)c(=O)c4c3)cc12` [Compound 54, 5-{2-[(acetylamino)methyl]-3-(4-fluorobenzyl)-4-oxo-3,4-dihydroquinazolin-6-yl}-2-(4-fluorophenyl)-N-methyl-6-[methyl(methylsulfonyl)amino]-1-benzofuran-3-carboxamide], the IC50 with HCV replicon genotype 1a was determined as 2.34 nM; in the assay on HCV replicon genotype 1b, 2.73 nM.
Taken in the same sequence, the figures for `CNC(=O)c1c(-c2ccc(F)cc2)oc2cc(N(C)S(C)(=O)=O)c(-c3cc(C)c4nnn(Cc5ccc(F)cc5)c(=O)c4c3)cc12` [Compound 74, 5-[3-(4-fluorobenzyl)-8-methyl-4-oxo-3,4-dihydro-1,2,3-benzotriazin-6-yl]-2-(4-fluorophenyl)-N-methyl-6-[methyl(methylsulfonyl)amino]-1-benzofuran-3-carboxamide] were 11.9 nM and 7.08 nM.
The corresponding values for `CNC(=O)c1c(-c2ccc(F)cc2)oc2cc(N(C)S(C)(=O)=O)c(-c3cc(OC)c4nc(C)n(Cc5ccc(F)cc5)c(=O)c4c3)cc12` [Compound 69, 5-(3-(4-fluorobenzyl)-8-methoxy-2-methyl-4-oxo-3,4-dihydroquinazolin-6-yl)-2-(4-fluorophenyl)-N-methyl-6-(N-methylmethylsulfonamido)benzofuran-3-carboxamide] are 6.64 nM and 10.1 nM.
For `CNC(=O)c1c(-c2ccc(F)cc2)oc2cc(N(C)S(C)(=O)=O)c(-c3ccc4nc(C)n(Cc5ccc(F)cc5F)c(=O)c4n3)cc12` [Compound 64, 5-(3-(2,4-difluorobenzyl)-2-methyl-4-oxo-3,4-dihydropyrido[3,2-d]pyrimidin-6-yl)-2-(4-fluorophenyl)-N-methyl-6-(N-methylmethylsulfonamido)benzofuran-3-carboxamide], the IC50 was 4.12 nM with HCV replicon genotype 1a and 3.63 nM with HCV replicon genotype 1b.
Taken in the same sequence, the figures for `CNC(=O)c1c(-c2ccc(F)cc2)oc2cc(N(C)S(C)(=O)=O)c(-c3ccc4nc(C)n([C@H](COC)c5ccc(F)cc5)c(=O)c4n3)cc12` [Compound 67, (S)-2-(4-fluorophenyl)-5-(3-(1-(4-fluorophenyl)-2-methoxyethyl)-2-methyl-4-oxo-3,4-dihydropyrido[3,2-d]pyrimidin-6-yl)-N-methyl-6-(N-methylmethylsulfonamido)benzofuran-3-carboxamide] were 4.97 nM and 3.77 nM.
Taken in the same sequence, the figures for `CNC(=O)c1c(-c2ccc(F)cc2)oc2cc(N(C)S(C)(=O)=O)c(-c3ccc4nnn(Cc5ccc(F)cc5)c(=O)c4c3)cc12` [Compound 44, 5-[3-(4-fluorobenzyl)-4-oxo-3,4-dihydro-1,2,3-benzotriazin-6-yl]-2-(4-fluorophenyl)-N-methyl-6-[methyl(methylsulfonyl)amino]-1-benzofuran-3-carboxamide] were 5.62 nM and 10.5 nM.
Taken in the same sequence, the figures for `CNC(=O)c1c(-c2ccc(F)cc2)oc2cc(N(C)S(C)(=O)=O)c(-c3ccc4nnn([C@H](CO)c5ccc(F)cc5)c(=O)c4c3)cc12` [Compound 40, 2-(4-fluorophenyl)-5-{3-[(1S)-1-(4-fluorophenyl)-2-hydroxyethyl]-4-oxo-3,4-dihydro-1,2,3-benzotriazin-6-yl}-N-methyl-6-[methyl(methylsulfonyl)amino]-1-benzofuran-3-carboxamide] were 6.19 nM and 9.03 nM.
As for `CNC(=O)c1c(-c2ccc(F)cc2)oc2cc(N(C)S(C)(=O)=O)c(-c3cnc4ncn(-c5cccc(F)c5)c(=O)c4c3)cc12` [Compound 23], the IC50 with HCV replicon genotype 1a came out at 3.98 nM; in the assay on HCV replicon genotype 1b, 3.24 nM.
The corresponding values for `CNC(=O)c1c(-c2ccc(F)cc2)oc2cc(N(C)S(C)(=O)=O)c(-c3ccc4c(n3)C(=O)N(Cc3ccccc3)CO4)cc12` [Compound 1, 5-(3-benzyl-4-oxo-3,4-dihydro-2H-pyrido[2,3-e][1,3]oxazin-6-yl)-2-(4-fluorophenyl)-N-methyl-6-(N-methylmethylsulfonamido)benzofuran-3-carboxamide] are 3.22 nM and 2.44 nM.
Taken in the same sequence, the figures for `CNC(=O)c1c(-c2ccc(F)cc2)oc2cc(N(C)S(C)(=O)=O)c(-c3ccc4nnn(Cc5ccc(F)cc5OC)c(=O)c4c3)cc12` [Compound 47, 5-[3-(4-fluoro-2-methoxybenzyl)-4-oxo-3,4-dihydro-1,2,3-benzotriazin-6-yl]-2-(4-fluorophenyl)-N-methyl-6-[methyl(methylsulfonyl)amino]-1-benzofuran-3-carboxamide] were 20.2 nM and 20.6 nM.

By IC50 is commonly meant the concentration that gives 50% inhibition. In general, pIC50 refers to −log10 of the IC50, conventionally taken in molar units.
